One series has as its system serum gastrin. The settings on record: humans, on administration; cited from earlier work.
In series [1] the test system is hepatic drug metabolizing enzyme systems. The conditions noted are these: relative to omeprazole; cited from earlier work.
The conditions of series [2]: in humans; cited from earlier work.
The subject of the next series is gastric acid secretion. The conditions noted are these: in humans; cited from earlier work.
Series [3] is described as follows: pharmacokinetic and duration profile of the S(−) isomer. The conditions noted are these: compared with racemic lansoprazole. Format: in vivo. From the text:
Syndrome, psoriasis and other disorders, including those that would benefit from an inhibitory action on H^+, K^+-ATPase in that it provides this effective treatment while substantially reducing the adverse effects of racemic lansoprazole including, but not limited to, hepatocellular neoplasia, gastric carcinoids, headache, diarrhea and skin alterations.

Series [4] relates to CYP2D6. Put plainly: metabolism by CYP2D6. The conditions noted are these: CYP2D6 is the polymorphically expressed enzyme.
The target of another series is CYP3A4 (Homo sapiens, UniProt P08684). In words: metabolism by CYP3A4.
In a further series the test system is canine parietal cells. The settings on record: isolated canine parietal cells; (+) versus (−) enantiomer; Nagaya et al.; cited from earlier work.
Another series can be described thus: stability at low pH. Format: physicochemical. The source says: The terms “pharmaceutically acceptable salts” or “a pharmaceutically acceptable salt thereof” refer to salts prepared from pharmaceutically acceptable non-toxic bases. […] Suitable pharmaceutically acceptable base addition salts for the compound of the present invention include metallic salts of aluminum, calcium, lithium, magnesium, potassium, sodium, titanium and zinc or organic salts made from lysine, N,N′-dibenzylethylenediamine, chloroprocaine, choline, diethanolamine, ethylenediamine, meglumine (N-methylglucamine) and procaine. If any salt is to be used, sodium salts are preferred.

Series [5] concerns CYP2D6.

Like-named read-outs stand apart in the source and are kept apart here.

Sequence of CYP3A4 (P08684 whole entry): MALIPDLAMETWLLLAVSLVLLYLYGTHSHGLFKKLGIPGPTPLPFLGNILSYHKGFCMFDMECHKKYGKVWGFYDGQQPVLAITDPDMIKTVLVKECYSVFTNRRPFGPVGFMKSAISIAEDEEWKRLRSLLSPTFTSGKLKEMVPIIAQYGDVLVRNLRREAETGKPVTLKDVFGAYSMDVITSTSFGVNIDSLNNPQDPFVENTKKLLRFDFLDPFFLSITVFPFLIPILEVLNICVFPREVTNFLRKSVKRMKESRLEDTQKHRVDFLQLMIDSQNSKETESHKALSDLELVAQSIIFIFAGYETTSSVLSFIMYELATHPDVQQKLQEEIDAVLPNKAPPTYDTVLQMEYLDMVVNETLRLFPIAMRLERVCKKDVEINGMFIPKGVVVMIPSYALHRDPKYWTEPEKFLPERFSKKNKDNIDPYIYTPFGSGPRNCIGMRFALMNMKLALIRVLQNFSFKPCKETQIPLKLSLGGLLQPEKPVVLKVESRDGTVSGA

For the molecule `Cc1c(OCC(F)(F)F)ccnc1C[S+]([O-])c1nc2ccccc2[nH]1` (racemic) [racemic lansoprazole, 2-[3-methyl-4-(2,2,2-trifluoroethoxy)pyrid-2-yl]methylsulfinyl-benzimidazole], the “fasting serum gastrin levels” value with serum gastrin is given as “significantly elevated”. Further, the “effects on hepatic drug metabolizing enzyme systems” value in series [1] is “comparable to omeprazole”. Also, the serum half-life result in series [2] was “about 1.5 hours”. Moreover, the “duration of the acid inhibitory effect” value in the series with gastric acid secretion was “about 24 hours”.

`Cc1c(OCC(F)(F)F)ccnc1C[S+]([O-])c1nc2ccccc2[nH]1` (single isomer, unassigned; (-)) [S(−) lansoprazole, (−) isomer of 2-[3-methyl-4-(2,2,2-trifluoroethoxy)pyrid-2-yl]methylsulfinyl-benzimidazole]: in series [3], the “AUC (area under the curve)” value is on record as “higher AUC”, the duration result is listed as “longer duration”, the first pass metabolism entry is “lower first pass metabolism” and the onset result is on record as “more rapid onset”. Also, in the series on CYP2D6 [4], the “metabolism by CYP2D6” value is “metabolized by both CYP2D6 and CYP3A4”. For the same molecule, on CYP3A4, the “metabolism by CYP3A4” value was “metabolized by both CYP2D6 and CYP3A4”. Moreover, in the series on canine parietal cells, the “effect on acid formation stimulated by db-cAMP” value was “almost identical”. Further, the “stability at low pH” value in the series “stability at low pH” is recorded as “unstable at low pH”.

Turning to `Cc1c(OCC(F)(F)F)ccnc1C[S@@+]([O-])c1nc2ccccc2[nH]1` [R(+) lansoprazole, reference compound], the “metabolism by CYP2D6” value in the series with CYP2D6 [5] is reported as “metabolized only by CYP2D6”. The “metabolism by CYP3A4” value at CYP3A4 is “metabolized only by CYP2D6”. The “effect on acid formation stimulated by db-cAMP” value with canine parietal cells is “almost identical”.

The values above are taken from patent US20040224989A1, “S-lansoprazole compositions and methods” (priority 1999, published 2004).
